Laboratory results reported in the NIST ThermoML archive (doi:10.1021/je800087p).
± gives the expanded uncertainty stated by the source.

How the values were obtained:
[1] = refractive index (Na D-line) (dimensionless); conditions: 298.15 K; 101.3 kPa; Liquid; Standard Abbe refractometry
[2] = Liquid; Ebulliometric method (Recirculating still)

| SMILES | refractive index [1] | Normal boiling temperature [2] |
| --- | --- | --- |
| CC(C)c1ccccc1 [isopropylbenzene] | 1.48829 ± 0.00053 | 152.48 ± 0.1 °C |
| C1CCOC1 [tetrahydrofuran] | 1.40443 ± 0.0005 | 66.1 ± 0.1 °C |
| C1CCOCC1 [tetrahydropyran] | 1.41899 ± 0.00063 | 88.16 ± 0.1 °C |
